Key:
Assay type in all cases: cell-based
[1] = tested on: MCF-7; test: Growth inhibition, Sulforhodamine B (SRB) or Systmex cell counting (CC) assay, MCF-7; conditions: Homo sapiens, MCF7, concentration required to inhibit net cell growth by 50%, read-out: Cancer cell line IC50
[2] = tested on: Human umbilical vein endothelial cells (HUVECs), tumour type activated (Tum); test: Proliferation Assay - Activated Endothelium (MTT); conditions: for IC50: Homo sapiens, HUVEC, tumour type activated endothelial cells
Procedure: Proliferation Assay—Activated Endothelium:
(§1) Cells were cultured overnight at 37° C. 5% CO2. Medium was subsequently replaced with fresh medium including the compound or negative control. Cells were cultured for a period of 48 hrs. An MTT assay was performed to measure changes in cell numbers. Briefly, 20 μl of MTT reagent was added to cells containing 100 μl of EGM2 and incubated at 37° C. for 2 hours.

[3] = tested on: Human umbilical vein endothelial cells (HUVECs), normal quiescent type (Norm); test: Proliferation Assay - Quiescent Endothelium (MTT); conditions: HUVEC
Procedure: Proliferation Assay—Quiescent Endothelium:
as §1, with “EBM2+0.5% FBS” for “EGM2”

[4] = tested on: MDA-MB-231; test: Growth inhibition, Sulforhodamine B (SRB) or Systmex cell counting (CC) assay, MDA-MB-231; conditions: Homo sapiens; MDA-MB-231 (footnote b); concentration required to inhibit net cell growth by 50%; read-out: Cancer cell line IC50

| SMILES | IC50 [1] | IC50 [2] | IC50 [3] | IC50 [4] | potency towards activated (tumour) versus quiescent (normal) endothelial cells ([2]; comparison of activated and quiescent HUVEC assays, FIGS. 1 and 2, Table 1) |
| --- | --- | --- | --- | --- | --- |
| COc1cc(OC)cc(C(=O)c2coc3c(O)c(OC)ccc23)c1 [Example 52, 3-(3,5-Dimethoxybenzoyl)-7-hydroxy-6-methoxybenzo[b]furan] | 35 nM | 100 to 1000 nM | 100 to 1000 nM |  |  |
| COc1cc(C(=O)c2c(Cn3nnc(N)n3)oc3c(O)c(OC)ccc23)cc(OC)c1OC [Example 36, 2-(5-amino-2H-tetrazol-2-yl)-methyl-3-(3,4,5-tri-methoxy-benzoyl)-6-methoxy-7-hydroxy-benzo[b]furan] |  | 1 to 10 nM | 1 to 10 nM |  |  |
| C#Cc1oc2c(O)c(OC)ccc2c1C(=O)c1cc(OC)c(OC)c(OC)c1 [Example 8, 2-Ethynyl-7-hydroxy-6-methoxy-3-(3,4,5-trimethoxybenzoyl)-benzofuran] | 3.3 nM | 1 to 10 nM | 1 to 10 nM |  |  |
| COC(=O)c1oc2c(O)c(OC)ccc2c1C(=O)c1cc(OC)c(OC)c(OC)c1 [Example 17, 7-Hydroxy-6-methoxy-3-(3,4,5-trimethoxy-benzoyl)-benzofuran-2-methylcarboxylate] |  | 1 to 10 nM | 1 to 10 nM | 1 to 10 nM |  |
| COC(=O)CN(C)Cc1oc2c(O)c(OC)ccc2c1C(=O)c1cc(OC)c(OC)c(OC)c1 [Example 43, 2-[(N-Methyl-2-amino-aceticacid methyl ester)-methenyl)-3-(3,4,5-trimethoxybenzoyl)-6-methoxy-7-hydroxy-benzo[b]furan] |  | 1 to 10 nM | 1 to 10 nM |  |  |
| COc1cc(C(=O)c2coc3c(O)c(OC)ccc23)cc(OC)c1OC [Example 6, 3-(3,4,5-Trimethoxybenzoyl)-6-methoxy-7-hydroxybenzofuran] | 45 nM | 10 to 100 nM | 10 to 100 nM |  |  |
| COc1ccc2c(C(=O)c3cc(OC)c(OC)c(OC)c3)c(Br)oc2c1 [Example 3, 2-Bromo-3-(3,4,5-trimethoxybenzoyl)-6-methoxybenzofuran, reference compound] | 500 nM | 100 to 1000 nM | 100 to 1000 nM |  |  |
| COc1ccc2c(C(=O)c3cc(OC)c(OC)c(OC)c3)c[nH]c2c1 [Comparator H, reference compound] |  | 1 to 10 nM | 1 to 10 nM |  |  |
| COC(=O)CNc1oc2c(O)c(OC)ccc2c1C(=O)c1cc(OC)c(OC)c(OC)c1 [Example 24, [7-Hydroxy-6-methoxy-3-(3,4,5-trimethoxy-benzoyl)-benzofuran-2-ylamino]-acetic acid methyl ester] |  | 1 to 10 nM | 1 to 10 nM | 1 to 10 nM |  |
| COc1ccc2c(C(=O)c3cc(OC)c(OC)c(OC)c3)coc2c1 [Example 5, 3-(3,4,5-Trimethoxybenzoyl)-6-methoxy-benzofuran, reference compound] | 55 nM | 10 to 100 nM | 10 to 100 nM |  |  |
| COc1ccc2c(C(=O)c3cc(OC)c(OC)c(OC)c3)c(C)sc2c1 [Example 51, 6-Methoxy-2-methyl-3-(3,4,5-trimethoxybenzoyl)benzo[b]thiophene, reference compound] |  | 1 to 10 nM | 1 to 10 nM |  |  |
| COc1cc(C(=O)c2c(Cn3ccnc3)oc3c(O)c(OC)ccc23)cc(OC)c1OC [Example 35, 2-(1H-Imidazol-1-yl)methyl-3-(3,4,5-trimethoxybenzoyl)-6-methoxy-7-hydroxy-benzo[b]furan] |  | 1 to 10 nM | 1 to 10 nM |  |  |
| COc1cc(C(=O)c2c(CN(C)CC(=O)O)oc3c(O)c(OC)ccc23)cc(OC)c1OC [Example 44, 2-[(N-Methyl-2-amino-aceticacid)-methenyl)-3-(3,4,5-trimethoxybenzoyl)-6-methoxy-7-hydroxy-benzo[b]furan] |  | 10 to 100 nM | 10 to 100 nM |  |  |
| COc1cc(C(=O)c2coc3c(N)c(OC)ccc23)cc(OC)c1OC [Example 2, (7-Amino-6-methoxybenzofuran-3-yl)(3,4,5-trimethoxyphenyl)methanone] |  | 1 to 10 nM | 1 to 10 nM | 1 to 10 nM |  |
| COc1cc(C(=O)c2c(C)[nH]c3c(O)c(OC)ccc23)cc(OC)c1O [Example 40, 3-(3,5-Dimethoxy-4-hydroxybenzoyl)-7-hydroxy-6-methoxy-2-methyl-1H-indole] |  | 1 to 10 nM | 10 to 100 nM |  |  |
| COc1cc(C(=O)c2c(C)[nH]c3c(O)c(OC)ccc23)cc(OC)c1OC [Example 39, 7-Hydroxy-6-methoxy-2-methyl-3-(3,4,5-trimethoxybenzoyl)-1H-indole] |  | 0.01 to 0.1 nM | 0.1 to 1 nM |  |  |
| COc1cc(C(=O)c2c(NN)oc3c(O)c(OC)ccc23)cc(OC)c1OC [Example 10, 2-Hydrazino-7-hydroxy-6-methoxy-3-(3,4,5-trimethoxybenzoyl)-benzofuran] | 35 nM | 1 to 10 nM | 10 to 100 nM |  |  |

| SMILES | IC50 [1] | IC50 [2] | IC50 [3] | IC50 [4] | potency towards activated (tumour) versus quiescent (normal) endothelial cells ([2]; comparison of activated and quiescent HUVEC assays, FIGS. 1 and 2, Table 1) |
| --- | --- | --- | --- | --- | --- |
| COc1ccc(/C=C\c2cc(OC)c(OC)c(OC)c2)cc1OP(=O)(O)O [Comparator B, reference compound] | 5 nM | 1 to 10 nM | 1 to 10 nM |  |  |
| CNc1oc2c(O)c(OC)ccc2c1C(=O)c1cc(OC)c(OC)c(OC)c1 [Example 18, 2-(N-Methylamino)-7-hydroxy-3-(3,4,5-trimethoxybenzoyl)-6-methoxy-benzofuran] | 3.5 nM | 1 to 10 nM | 0.1 to 1 nM |  |  |
| COc1cc(C(=O)c2c(NCC(=O)O)oc3c(O)c(OC)ccc23)cc(OC)c1OC [Example 23, [7-hydroxy-6-methoxy-3(3,4,5-trimethoxy-benzoyl)-benzofuran-2-ylamino]acetic acid] | 260 nM | 100 to 1000 nM | 100 to 1000 nM |  |  |
| COc1cc(C(=O)c2c(C)sc3c(O)c(OC)ccc23)cc(OC)c1OC [Example 42, 7-Hydroxy-6-methoxy-2-methyl-3-(3,4,5-trimethoxybenzoyl)benzo[b]thiophene] |  | 0.1 to 1 nM | 1 to 10 nM |  |  |
| COc1cc(C(=O)c2c(CN3CCN(C)CC3)oc3c(O)c(OC)ccc23)cc(OC)c1OC [Example 37, 2-(4-Methylpiperazin-1-yl)methyl-3-(3,4,5-tri-methoxy-benzoyl)-6-methoxy-7-hydroxy-benzo[b]furan] |  | 10 to 100 nM | 10 to 100 nM |  |  |
| COc1cc(C(=O)c2c(C)oc3c(O)c(OC)ccc23)cc(OC)c1O [Example 46, 3-(4-Hydroxy-3,5-di-methoxy-benzoyl)-7-hydroxy-6-methoxy-2-Methyl-benzo[b]furan] |  | 10 to 100 nM | 100 to 1000 nM |  |  |
| COc1cc(C(=O)c2c(NCCNC(=N)N)oc3c(O)c(OC)ccc23)cc(OC)c1OC [Example 28, 1-[2-(7-hydroxy-6-methoxy-3-(3,4,5-trimethoxybenzoyl)benzofuran-2-ylamino)ethyl]guanidine] |  | 100 to 1000 nM | 10 to 100 nM |  |  |
| COc1ccc2c(C(=O)c3cc(OC)c(OC)c(OC)c3)c(O)oc2c1 [Example 30, (2-Hydroxy-6-methoxybenzofuran-3-yl)(3,4,5-trimethoxyphenyl)methanone, reference compound] | 575 nM | 100 to 1000 nM | 100 to 1000 nM |  |  |
| COc1cc(C(=O)c2c(SC)oc3c(O)c(OC)ccc23)cc(OC)c1OC [Example 9, 7-Hydroxy-6-methoxy-2-methylsulfanyl-3-(3,4,5-trimethoxybenzoyl)benzofuran] | 1.2 nM | 0.1 to 1 nM | 1 to 10 nM |  | higher potency towards tumour endothelial cells (activated) over normal endothelial cells (quiescent) |
| COC(=O)/C=C/c1oc2c(O)c(OC)ccc2c1C(=O)c1cc(OC)c(OC)c(OC)c1 [Example 14, (E)-3-[7-Hydroxy-6-methoxy-3-(3,4,5-trimethoxy-benzoyl)-benzofuran-2-yl]-acrylic acid methyl ester] | 2 nM | 0.1 to 1 nM | 1 to 10 nM |  |  |
| COc1cc(C(=O)c2c(NCCNC(=O)OC(C)(C)C)oc3c(O)c(OC)ccc23)cc(OC)c1OC [Example 26, tert-Butyl-2-(7-hydroxy-6-methoxy-3-(3,4,5-trimethoxybenzoyl)benzofuran-2-ylamino)ethyl carbamate] |  | 1 to 10 nM | 1 to 10 nM |  |  |
| COc1ccc(/C=C\c2cc(OC)c(OC)c(OC)c2)cc1O [Comparator A, reference compound] | 5 nM | 1 to 10 nM | 1 to 10 nM |  |  |
| COc1ccc2c(C(=O)c3c(F)c(F)c(F)c(F)c3F)coc2c1O [Example 53, 3-(Pentafluorobenzoyl)-6-methoxy-7-hydroxybenzo[b]furan] | 800 nM | > 1000 nM | > 1000 nM |  |  |
| COc1cc(C(=O)c2c(CN(C)C)oc3c(O)c(OC)ccc23)cc(OC)c1OC [Example 34, 2-Dimethylaminomethylene-3-(3,4,5-tri-methoxy-benzoyl)-6-methoxy-7-hydroxy-benzo[b]furan] |  | 1 to 10 nM | 1 to 10 nM |  |  |
| COc1cc(C(=O)c2c(NCCS(N)(=O)=O)oc3c(O)c(OC)ccc23)cc(OC)c1OC [Example 45, 2-N-(Aminoethanesulphonamide)-3-(3,4,5-trimethoxybenzoyl)-6-methoxy-7-hydroxy-benzo[b]furan] |  | 1 to 10 nM | 1 to 10 nM |  |  |
| COc1cc(C(=O)c2c(N)oc3c(O)c(OC)ccc23)cc(OC)c1OC [Example 19, (2-Amino-7-hydroxy-6-methoxy-benzofuran-3-yl)-(3,4,5-trimethoxyphenyl)-methanone] |  | 1 to 10 nM | 1 to 10 nM |  |  |
| CCC/C=C/c1oc2c(O)c(OC)ccc2c1C(=O)c1cc(OC)c(OC)c(OC)c1 [Example 13] | 8 nM | 1 to 10 nM | 1 to 10 nM |  |  |
